Entries after “also recorded” stand apart in the source; their conditions may differ.
Key:
[1] = test system: cisplatin-resistant human lung cancer (HTB-161) cells; assay: In vitro radiosensitizing effect, 18-day clonogenic assay; format: cell-based; conditions: HTB-161, 12-hr treatment, 0-10 Gy 225 keV X-ray
Excerpt: (§1) Dibromo-diamino-benzene (Dibromo-phenylenediamine, Compound B) was obtained from TCI—America. Diiodo-diaminobenzene (Compound C) were synthesized, purified and crystallized in our laboratory, and the structures and purity were examined by NMR and mass spectrometry. MEM and fetal bovine serum (FBS), penicillin G and streptomycin were obtained from Hyclone Laboratories (UT, USA). Stock solution of cisplatin was freshly prepared in ultrapure water or saline, and stock solutions of Compounds A, B, C, D were prepared in pure ethanol, where the final concentration of ethanol was ≦1% when treated to cells.
A human skin diploid fibroblast (GM05757 cell line) was obtained from the Coriell Cell Repository directly, while the human cervical cancer cell line (HeLa, ATCC#: CCL-2; or ME-180), human ovarian cancer cell line (NIH:OVCAR-3, ATCC#: HTB-161) and human lung cancer cell line (A549, ATCC#: CCL-185™), together with RPMI 1640, F-12K, McCoy's 5 A and L-15 culture media, were obtained from the American Type Culture Collection (ATCC) directly. Fetal bovine serum (FBS) was obtained from Hyclone Laboratories (UT, USA). The GM05757 normal cells and HeLa cells were cultivated with MEM (Hyclone) supplemented with 10% FBS, 100 units/mL penicillin G and 100 μg/mL streptomycin (Hyclone). […]

[2] = test system: human normal cells (GM05757); assay: In vitro radiation-induced toxicity in human normal cells, MTT assay 12 days after X-ray; format: cell-based; conditions: GM05757, 12-hr treatment, then 0-10 Gy 225 keV X-ray, MTT at 12 days
Excerpt: as §1, with “TCI-America.” for “TCI—America.”
A human skin diploid fibroblast (GM05757 cell line) was obtained from the Coriell Cell Repository directly. Fetal bovine serum (FBS) was obtained from Hyclone Laboratories (UT, USA). The GM05757 normal cells were cultivated with MEM (Hyclone) supplemented with 10% FBS, 100 units/mL penicillin G and 100 μg/mL streptomycin (Hyclone). The cells were maintained at 37° C. in a humidified atmosphere containing 5% CO2.
The radiosensitizing effects of RSCs on cell viability were determined by the 3-[4,5-dimethylthiazol-2-yl]-2,5-diphenyl tetrazoliumbromide (MTT) assay. Cells were cultured in 96-well plates (5×10^3 cells/well) for 24 h. The culture medium was replaced by fresh culture medium and incubated for 12 h with varying drug concentrations. The cells were then irradiated by 225 kV X-ray (PRECISION X-RAD IR 225) at a dose rate of 2 Gy/min with various X-ray doses. After irradiation, the cells were incubated for 12 days. The MTT assay of cell viability was then conducted. Briefly, 100 μl new medium without phenol red containing 1.2 mM MTT (sigma) (i.e., adding 10 μl 12 mM MTT stock solution in PBS) were added to each well and incubated for 4 h. […] The surviving fraction was determined by measuring the absorbance at 540 nm (570 nm for SDS solubilization) using a Multiskan Spectrum UV/Vis microplate reader (Thermo Scientific), which is directly proportional to the number of viable cells.

[3] = test system: SCID mice; assay: In vivo toxicity of Compound B in SCID mice
Experimental: The three groups (five 6-8 week SCID mice/group) in the experiment were: (1) control article (5% EtOH/medium); (2) Compound B 5 mg/kg in 5% EtOH/medium; and (3) Compound B 7 mg/kg in 5% EtOH/medium, as shown in Table 1. Compound B was injected IP every day for 10 days.
6.1.2 Mouse and Compound B Solution Preparation: • 6-8 week SCID mice were used in this study; Compound B as an exemplary RSC was dissolved in 5% EtOH: 95% (cell culture) medium (≈1:20).
6-8 week SCID Mice were individually weighed and injected intraperitoneally (IP) according to body weight for an injection concentration as outlined in the study group table above. […]
The overall drug toxicity in mice was observed by a survival assay and body weight measurements, and the acute drug toxicity was measured by blood collection and histology. The hepatotoxicity (ALT, ALP, AST), nephrotoxicity (blood BUN, creatinine), and electrolytes (Na, K, etc) were analyzed by HPLC-mass spectroscopy. […]
All animals were observed post administration, and at least once a day, more if deemed necessary, during the pre-treatment and treatment periods for mortality and morbidity. In particular, animals were monitored for signs of ill health such as body weight loss, change in appetite, behavior changes such as altered gait, lethargy and gross manifestations of stress.

[4] = test system: various human cancer cells; assay: In vitro radiosensitizing effects in various human cancer cells (FIG. 14-21); format: cell-based; conditions: 12 hr treatment, then various doses of 225 keV X-ray
Excerpt: as §1
A human skin diploid fibroblast (GM05757 cell line) was obtained from the Coriell Cell Repository directly, while the human cervical cancer cell line (HeLa, ATCC#: CCL-2; or ME-180), human ovarian cancer cell line (NIH:OVCAR-3, ATCC#: HTB-161) and human lung cancer cell line (A549, ATCC#: CCL-185™), together with RPMI 1640, F-12K, McCoy's 5 A and L-15 culture media, were obtained from the American Type Culture Collection (ATCC) directly. Fetal bovine serum (FBS) was obtained from Hyclone Laboratories (UT, USA). The GM05757 normal cells and HeLa cells were cultivated with MEM (Hyclone) supplemented with 10% FBS, 100 units/mL penicillin G and 100 μg/mL streptomycin (Hyclone). The complete growth media for ME-180, NIH:OVCAR-3, A549 and MDA-MB-231 cells were the ATCC-formulated McCoy's 5 A Medium supplemented with 10% FBS, RPMI 1640 medium with 20%, F-12K medium with 10% FBS, and L-15 Medium (Leibovitz) with 10% FBS, respectively. The cells were maintained at 37° C. in a humidified atmosphere containing 5% CO2.
The radiosensitizing effects of RSCs on cell viability were determined by the 3-[4,5-dimethylthiazol-2-yl]-2,5-diphenyl tetrazoliumbromide (MTT) assay. Cells were cultured in 96-well plates (5×10^3 cells/well) for 24 h. The culture medium was replaced by fresh culture medium and incubated for 12 h with varying drug concentrations. The cells were then irradiated by 225 kV X-ray (PRECISION X-RAD IR 225) at a dose rate of 2 Gy/min with various X-ray doses. After irradiation, the cells were incubated for 6 days. The MTT assay of cell viability was then conducted. Briefly, 100 μl new medium without phenol red containing 1.2 mM MTT (sigma) (i.e., adding 10 μl 12 mM MTT stock solution in PBS) were added to each well and incubated for 4 h. The medium was then removed, and the formazan crystals solubilized by 100 μL/well DMSO (or alternatively by 100 μl/well SDS and incubated for another 4 h). The surviving fraction was determined by measuring the absorbance at 540 nm (570 nm for SDS solubilization) using a Multiskan Spectrum UV/Vis microplate reader (Thermo Scientific), which is directly proportional to the number of viable cells.

Nc1cc(Br)c(Br)cc1N [Compound B, 4,5-dibromo-1,2-phenylenediamine]
enhancement of radiosensitivity of cisplatin-resistant cancer cells to X-ray [1]: significant enhancement in the radiosensitivity | radiation toxicity in human normal cells [2]: no radiation toxicity | overall toxicity in mice (survival, body weight) ([3]; IP 0, 5 and 7 mg/kg daily for 10 days): no overall drug toxicity; also recorded: no overall toxicity in mice | survival rate of mice ([3]; SCID, mouse, in vivo, 10 days): 100% | killing of cancer cells in combination with radiation [4]: enhanced the killing of cancer cells in a radiation dose dependent manner and in synergy with radiation; also recorded: enhances the effectiveness of ionizing radiation to kill tumor cells

Source: patent US9655965B2, “Radiosensitizer compounds for use in combination with radiation” (priority 2013, dated 2017)
